Measured values as given in patent publication US12139498B1, “Positive allosteric modulators of the muscarinic acetylcholine receptor M4” (Vanderbilt University, priority 2023, dated 2024).
pEC50: −log10 of the molar value.

Molecular target: T1, Human M4 (Homo sapiens, UniProt P08173)
T1 sequence (P08173 1-479): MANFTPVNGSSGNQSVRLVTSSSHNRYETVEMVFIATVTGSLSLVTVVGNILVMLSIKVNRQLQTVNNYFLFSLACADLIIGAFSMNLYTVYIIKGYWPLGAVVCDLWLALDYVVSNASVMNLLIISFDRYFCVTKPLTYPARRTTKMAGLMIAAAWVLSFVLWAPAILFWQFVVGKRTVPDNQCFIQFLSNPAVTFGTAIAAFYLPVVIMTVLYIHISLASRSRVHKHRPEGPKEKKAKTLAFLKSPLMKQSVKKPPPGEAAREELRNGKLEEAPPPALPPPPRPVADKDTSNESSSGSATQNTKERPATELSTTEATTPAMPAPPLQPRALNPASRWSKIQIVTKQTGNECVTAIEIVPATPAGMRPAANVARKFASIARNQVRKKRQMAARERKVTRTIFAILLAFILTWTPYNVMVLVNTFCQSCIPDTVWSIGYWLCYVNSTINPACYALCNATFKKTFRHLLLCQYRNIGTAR
Assay: M4 cell-based functional assay (calcium mobilization)
Set-up: expressed in transfected cells
Conditions: for Emax at 30 µM: % ACh maximum at 30 μM; for pEC50: CHO-K1 hM4-Gqi5 cells, calcium flux, increase in EC20 acetylcholine response
Method: Human (h) and rat (r) M4 CDNAs, along with the chimeric G protein Gqi5, were transfected into Chinese hamster ovary (CHO-K1) cells purchased from the American Type Culture Collection using Lipofectamine2000. The transfected cells were subjected to selection antibiotic treatment to generate stable cell lines; G418 sulfate (1 mg/ml) for selecting M4 expressing cells and Hygromycin B (500 μg/mL) for selecting Gqi5 expressing cells. The resulting polyclones were further screened to obtain monoclones of hM4-Gqi5 and rM4-Gqi5 for compound screening assay. Stable monoclone cells were maintained in Ham's F-12 medium containing 10% heat-inactivated fetal bovine serum (FBS), 1× Antibiotic/Antimycotic, 20 mM HEPES, 500 μg/mL G418 sulfate, and 200 μg/mL Hygromycin B in 37° C. humidified incubators in the presence of 5% CO2.
The high throughput assay was employed to measure receptor-induced mobilization of intracellular calcium to determine compound activity. Test compound was added to cells expressing the muscarinic receptors that were loaded with calcium sensitive fluorescent dye. After a ˜2.5 minute incubation period, a submaximal (EC20) concentration of acetylcholine was added, and the response measured. This kinetic assay allows for simultaneous screening and potency determination of multiple pharmacological modes of action including agonist and potentiator activity. CHO-K1 cells stably expressing muscarinic receptors were plated in growth medium lacking G418 and hygromycin at 15,000 cells/20 μL/well in Greiner 384-well black-walled, tissue culture (TC)-treated, clear-bottom plates (Greiner Bio-One). Cells were incubated overnight at 37° C. and 5% CO2. The next day, calcium assay buffer (Hank's balanced salt solution (HBSS), 20 mM HEPES, 2.5 mM Probenecid, 4.16 mM sodium bicarbonate (Sigma-Aldrich, St. Louis, MO)) was prepared to dilute compounds, agonists, and Fluo-4-acetomethoxyester (Fluo-4-AM), fluorescent calcium indicator dye. Compounds were serially diluted 1:3 into 10 point concentration response curves in DMSO using the Bravo Liquid Handler (Agilent, Santa Clara, CA), transferred to a 384 well daughter plates using an Echo acoustic liquid handler (Beckman Coulter, Indianapolis, Indiana), and diluted in assay Buffer to a 2× final concentration. The agonist plates were prepared using acetylcholine (ACh, Sigma-Aldrich, St. Louis, MO) concentrations for the EC20 and ECMAX responses by diluting in assay buffer to a 5× final concentration. The 2× dye solution (2.3 μM) was prepared by mixing a 2.3 mM Fluo-4-AM stock in DMSO with 10% (w/v) pluronic acid F-127 in a 1:1 ratio in assay buffer. Using a microplate washer (BioTek, Winooski, VT), cells were washed with assay buffer for 3 times to remove medium. After the final wash, 20 μL of assay buffer remained in the cell plates. Immediately, 20 μL of the 2× dye solution (final 1.15 μM) was added to each well of the cell plate using a Multidrop Combi dispenser (Thermo Fisher, Waltham, MA). After cells were incubated with the dye solutions for 45 min at 37° C. in the presence of 5% CO2, the dye solutions were removed and replaced with assay buffer using a microplate washer, leaving 20 μL of assay buffer in the cell plate.
The prepared compound, agonist, and cell plates were placed inside the Functional Drug Screening System uCell (FDSS uCell, Hamamatsu, Japan) to measure the calcium flux.
The triple add protocol was used to measure Ca kinetics; Compound, ACh for EC2O, and ACh for EC80 adds in an order. Briefly, after establishment of a fluorescence baseline for 2 seconds (excitation, 480 nm; emission, 530 nm), first add occurred by adding 20 μL of test compound to the cells, and the response was measured for 140 seconds. This is followed by second add; 10 μL (5×) of an EC20 concentration of ACh agonist was added to the cells, and the response of the cells was measured for 125 seconds. […]

| Compound | Emax at 30 µM | pEC50 |
| --- | --- | --- |
| [2H]C([2H])([2H])n1nc2nc(N3CCc4nc(C5(F)CC5)sc4C3)c(C)c(C)n2c1=O [Compound 71, 7-(2-(1-fluorocyclopropyl)-6,7-dihydrothiazolo[5,4-c]pyridin-5(4H)-yl)-5,6-dimethyl-2-(methyl-d3)-[1,2,4]triazolo[4,3-a]pyrimidin-3(2H)-one] | 83% | 8.15 |
| Cc1cc2nccnc2nc1N1CCc2ncsc2C1 [Compound 53, 5-(7-methylpyrido[2,3-b]pyrazin-6-yl)-4,5,6,7-tetrahydrothiazolo[5,4-c]pyridine] | 82% | 5.55 |
| Cc1cc(C#N)cnc1N1CCc2nc(C3CC3)sc2C1 [Compound 16, 6-(2-cyclopropyl-6,7-dihydrothiazolo[5,4-c]pyridin-5(4H)-yl)-5-methylnicotinonitrile] | 84% | 6.99 |
| Cc1cc(C#N)cnc1N1CCc2nc(-c3cnn(C4CCC4)c3)sc2C1 [Compound 4, 6-(2-(1-cyclobutyl-1H-pyrazol-4-yl)-6,7-dihydrothiazolo[5,4-c]pyridin-5(4H)-yl)-5-methylnicotinonitrile] | 54% | < 5.00 |
| COC1CN(C(=O)c2cc(=O)n3nc(N4CCc5nc(Br)sc5C4)c(C)cc3n2)C1 [Compound 44, 7-(2-bromo-6,7-dihydrothiazolo[5,4-c]pyridin-5(4H)-yl)-2-(3-methoxyazetidine-1-carbonyl)-8-methyl-4H-pyrimido[1,2-b]pyridazin-4-one] | 93% | 5.62 |
| Cc1cc(C#N)cnc1N1CCc2nc(C(N)=O)sc2C1 [Compound 21, 5-(5-cyano-3-methylpyridin-2-yl)-4,5,6,7-tetrahydrothiazolo[5,4-c]pyridine-2-carboxamide] | 98% | 6.52 |
| Cc1cc(C#N)cnc1N1CCc2nc(NCc3cccc(F)c3)sc2C1 [Compound 18, 6-(2-((3-fluorobenzyl)amino)-6,7-dihydrothiazolo[5,4-c]pyridin-5(4H)-yl)-5-methylnicotinonitrile] | 44% | 5.39 |
| Cc1cc2nc(C(=O)N3CC4(COC4)C3)cc(=O)n2nc1N1CCc2nc(Br)sc2C1 [Compound 47, 7-(2-bromo-6,7-dihydrothiazolo[5,4-c]pyridin-5(4H)-yl)-8-methyl-2-(2-oxa-6-azaspiro[3.3]heptane-6-carbonyl)-4H-pyrimido[1,2-b]pyridazin-4-one] | 66% | 5.71 |
| Cc1c(N2CCc3nc(C4CC4)sc3C2)nc2nn(CC3(C#N)CC3)c(=O)n2c1C [Compound 73, 1-((7-(2-cyclopropyl-6,7-dihydrothiazolo[5,4-c]pyridin-5(4H)-yl)-5,6-dimethyl-3-oxo-[1,2,4]triazolo[4,3-a]pyrimidin-2(3H)-yl)methyl)cyclopropane-1-carbonitrile] | 91% | 7.92 |
| Cc1cc(C#N)nnc1N1CCc2nc(Br)sc2C1 [Compound 19, 6-(2-bromo-6,7-dihydrothiazolo[5,4-c]pyridin-5(4H)-yl)-5-methylpyridazine-3-carbonitrile] | 99% | 6.07 |
| Cc1cn2c(=O)[nH]nc2nc1N1CCc2nc(C3CCC3)sc2C1 [Compound 66, 7-(2-cyclobutyl-6,7-dihydrothiazolo[5,4-c]pyridin-5(4H)-yl)-6-methyl-[1,2,4]triazolo[4,3-a]pyrimidin-3(2H)-one] | 76% | 7.89 |
| Cc1cc2nccnc2nc1N1CCc2nc(N)sc2C1 [Compound 60, 5-(7-methylpyrido[2,3-b]pyrazin-6-yl)-4,5,6,7-tetrahydrothiazolo[5,4-c]pyridin-2-amine] | 67% | < 5.00 |
| Cc1cc(C#N)cnc1N1CCc2nc(Br)sc2C1 [Compound 1, 6-(2-bromo-6,7-dihydrothiazolo[5,4-c]pyridin-5(4H)-yl)-5-methylnicotinonitrile] | 92% | 7.23 |
| Cc1c(C#N)nnc(N2CCc3nc(Nc4cccc(F)c4)sc3C2)c1C [Compound 6, 6-(2-((3-fluorophenyl)amino)-6,7-dihydrothiazolo[5,4-c]pyridin-5(4H)-yl)-4,5-dimethylpyridazine-3-carbonitrile] | 41% | < 5.00 |
| Fc1ccc2ncnc(N3CCc4nc(Br)sc4C3)c2c1 [Compound 28, 2-bromo-5-(6-fluoroquinazolin-4-yl)-4,5,6,7-tetrahydrothiazolo[5,4-c]pyridine] | 101% | 7.35 |
| Cc1cc2nc(C(=O)N3CC(C)C3)cc(=O)n2nc1N1CCc2nc(Br)sc2C1 [Compound 43, 7-(2-bromo-6,7-dihydrothiazolo[5,4-c]pyridin-5(4H)-yl)-8-methyl-2-(3-methylazetidine-1-carbonyl)-4H-pyrimido[1,2-b]pyridazin-4-one] | 87% | 5.71 |
| CCOC(=O)c1nc2c(s1)CN(c1nc3nccnc3cc1C)CC2 [Compound 58, ethyl 5-(7-methylpyrido[2,3-b]pyrazin-6-yl)-4,5,6,7-tetrahydrothiazolo[5,4-c]pyridine-2-carboxylate] | 86% | 5.74 |
| Cn1ccc2c(N3CCc4nc(Br)sc4C3)ncnc21 [Compound 27, 2-bromo-5-(7-methyl-7H-pyrrolo[2,3-d]pyrimidin-4-yl)-4,5,6,7-tetrahydrothiazolo[5,4-c]pyridine] | 43% | < 5.00 |
| Cc1cn2c(=O)n(C)nc2nc1N1CCc2nc(C3CCC3)sc2C1 [Compound 67, 7-(2-cyclobutyl-6,7-dihydrothiazolo[5,4-c]pyridin-5(4H)-yl)-2,6-dimethyl-[1,2,4]triazolo[4,3-a]pyrimidin-3(2H)-one] | 71% | 8.40 |
| Cc1c(C#N)nnc(N2CCc3nc(Nc4ccc(F)cc4)sc3C2)c1C [Compound 7, 6-(2-((4-fluorophenyl)amino)-6,7-dihydrothiazolo[5,4-c]pyridin-5(4H)-yl)-4,5-dimethylpyridazine-3-carbonitrile] | 49% | 5.89 |
| COc1ccc2ncnc(N3CCc4nc(Br)sc4C3)c2c1 [Compound 31, 2-bromo-5-(6-methoxyquinazolin-4-yl)-4,5,6,7-tetrahydrothiazolo[5,4-c]pyridine] | 68% | 6.25 |
| Cc1cc2nccc(=O)n2nc1N1CCc2nc(Br)sc2C1 [Compound 34, 7-(2-bromo-6,7-dihydrothiazolo[5,4-c]pyridin-5(4H)-yl)-8-methyl-4H-pyrimido[1,2-b]pyridazin-4-one] | 70% | 5.22 |
| Cc1cc2c(N3CCc4nc(Br)sc4C3)ncnc2s1 [Compound 24, 2-bromo-5-(6-methylthieno[2,3-d]pyrimidin-4-yl)-4,5,6,7-tetrahydrothiazolo[5,4-c]pyridine] | 102% | 7.30 |
